One assay deals with Target C. Briefly: HiBiT protein abundance assay, Target C (K562 HiBiT knock-in cells). It is filed as cell-based, human. Particulars: 24 hours. A digest of the protocol: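 Protein abundance read by HiBiT lytic luminescence after 24 h compound exposure (37 °C) of knock-in K562 cells, 10000 cells/well in IMDM+1% FBS. Dosing: 10 points, 3-fold, top 10 μM final, ≤0.25% DMSO. Four-parameter logistic fit gave concentration reducing abundance to 50% of untreated control.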
Background: The HiBiT peptide binds its large partner to form an active luciferase.

A further assay relates to SMN2 mRNA. Briefly: Gene panel canonical junction qPCR assay, SMN2 CJ mRNA decrease. It is filed as cell-based, human. The settings on record: Homo sapiens, canonical junction qPCR, read-out: SMN2 IC50 (decrease in CJ mRNA levels). In short, it runs like this: (§1)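 IC50 values describe loss of canonical-junction transcript, fitted by 4-parameter logistic to percent response derived from fixed ΔCt windows. Read-out: RT-qPCR on lysates of compound-treated K562 or A673 cells, probes overlapping the exon junction, ΔΔCt versus housekeeping gene and DMSO control.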
For orientation: In qPCR the cycle at which signal appears reflects the starting amount.

The next assay has as its system Target C mRNA. The assay can be described thus: Gene panel canonical junction qPCR assay, Target C CJ mRNA decrease. The settings on record: Homo sapiens, canonical junction qPCR, read-out: Target C IC50 (decrease in CJ mRNA levels). It is filed as cell-based. A digest of the protocol: as §1
Another assay deals with HiBiT-tagged HTT protein. The assay can be described thus: HiBiT protein abundance assay, HTT (K562 HiBiT knock-in cells). It is filed as cell-based, human. The settings on record: 24 hours. A digest of the protocol: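 Luminescent readout of HiBiT-tagged endogenous protein after lysis, following 24 h compound exposure of knock-in K562 lines at 37 °C. Ten 3-fold concentrations from 10 μM final, DMSO ≤0.25%. Four-parameter logistic fit of normalized response gives concentration halving abundance (IC50).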

Broadly, the IC50 is the concentration that inhibits the measured activity by half.

On to `Cc1cn2cc(NC(=O)c3ccc(C4CCNC5(CC5)C4)c4nccnc34)cc(F)c2n1` (stereo not shown) [Compound 375], for which the concentration for half-maximal inhibition (IC50) in the assay with Target C was 1000 to 10000 nM; in the assay with SMN2 mRNA, less than 100 nM; with Target C mRNA it was 1000 to 10000 nM; with HiBiT-tagged HTT protein it was 1000 to 10000 nM.
For `Cc1cn2cc(NC(=O)c3ccc(N4C[C@@H](C)NC5(CC5)C4)c4nccnc34)cc(F)c2n1` [Compound 376], the IC50 in the assay with Target C was greater than 10000 nM; in the assay on SMN2 mRNA, less than 100 nM; in the assay with Target C mRNA, greater than 10000 nM; in the assay on HiBiT-tagged HTT protein it was 1000 to 10000 nM.
Turning to `Cc1cn2cc(NC(=O)c3ccc(N4C[C@H](C)NC5(CC5)C4)c4nccnc34)cc(F)c2n1` [Compound 377], the IC50 is 1000 to 10000 nM in the assay on Target C, less than 100 nM with SMN2 mRNA, greater than 10000 nM in the assay on Target C mRNA and 1000 to 10000 nM with HiBiT-tagged HTT protein.
Turning to `COc1ncc2c(N3C[C@@H](C)N[C@@H](C)C3)ccc(C(=O)Nc3cn4cc(C)nc4c(OC)n3)c2n1` [Compound 378], the half-maximal inhibitory concentration (IC50) with Target C was 100 to 1000 nM; in the assay on SMN2 mRNA, less than 100 nM; in the assay with Target C mRNA it was 100 to 1000 nM; in the assay with HiBiT-tagged HTT protein it was 100 to 1000 nM.

For the origin of these results see US20240409536A1, “COMPOUNDS AND METHODS FOR MODULATING SPLICING” (REMIX THERAPEUTICS INC., priority 2021, published 2024).
